From BindingDB's records for doi:10.1016/j.bmcl.2009.01.012 (Pfizer, 2009)

test: Antagonist activity at human recombinant CCR5 expressed in human HeLa-P4 cells assessed as inhibition of human HeLa-P4 cells binding to HIV1 gp160 expressing CHO cells by cell-cell fusion assay

| SMILES | IC50 |
| --- | --- |
| Cc1ccnc(C)c1C(=O)NCCN1CCCC(CC(c2ccccc2)c2ccccc2)C1 (racemic) [rac-N-(2-(3-(2,2-diphenylethyl)piperidin-1-yl)ethyl)-2,4-dimethylnicotinamide] | 56 nM |
| Cc1ccnc(C)c1C(=O)N1CC(N(C)C2CCN(C(c3ccccc3)c3ccccc3)CC2)C1 [(3-((1-benzhydrylpiperidin-4-yl)(methyl)amino)azetidin-1-yl)(2,4-dimethylpyridin-3-yl)methanone] | 102 nM |
| Cc1ccnc(C)c1C(=O)N1CCC(N2C3CCC2CN(C(c2ccccc2)c2ccccc2)C3)CC1 [(4-(3-benzhydryl-3,8-diazabicyclo[3.2.1]octan-8-yl)piperidin-1-yl)(2,4-dimethylpyridin-3-yl)methanone] | 41 nM |
| Cc1ccnc(C)c1C(=O)N1CCC(N2CC3CCC(C2)N3C(c2ccccc2)c2ccccc2)CC1 [(4-(8-benzhydryl-3,8-diazabicyclo[3.2.1]octan-3-yl)piperidin-1-yl)(2,4-dimethylpyridin-3-yl)methanone] | 313 nM |
| Cc1ccnc(C)c1C(=O)N1CCC(N(C)C2CN(C(c3ccccc3)c3ccccc3)C2)CC1 [(4-((1-benzhydrylazetidin-3-yl)(methyl)amino)piperidin-1-yl)(2,4-dimethylpyridin-3-yl)methanone] | 24 nM |
| Cc1cccc(C)c1C(=O)N1CCC(N2CC[C@@H](N(Cc3ccccc3)C(=O)C3CC3)C2)CC1 [(R)-N-benzyl-N-(1-(1-(2,6-dimethylbenzoyl)piperidin-4-yl)pyrrolidin-3-yl)cyclopropanecarboxamide] | 1 nM |
| Cc1cccc(C)c1C(=O)N1CCC(N2CC[C@H](N(Cc3ccccc3)C(=O)C3CC3)C2)CC1 [(S)-N-benzyl-N-(1-(1-(2,6-dimethylbenzoyl)piperidin-4-yl)pyrrolidin-3-yl)cyclopropanecarboxamide] | 1230 nM |
| CC(=O)NC(c1ccccc1)C1CN(C2CCN(C(=O)c3c(C)cccc3C)CC2)C1 (stereo not drawn) [N-((1-(1-(2,6-dimethylbenzoyl)piperidin-4-yl)azetidin-3-yl)(phenyl)methyl)acetamide] | 2490 nM |
| Cc1cccc(C)c1C(=O)N1CCC(N2CCC(CNC(=O)C3CC3)(Cc3ccccc3)CC2)CC1 [N-((4-benzyl-1'-(2,6-dimethylbenzoyl)-1,4'-bipiperidin-4-yl)methyl)cyclopropanecarboxamide] | 145 nM |
| Cc1cccc(C)c1C(=O)N1CCC(N2CCC(N(Cc3ccccc3)C(=O)C3CCC3)CC2)CC1 [N-benzyl-N-(1'-(2,6-dimethylbenzoyl)-1,4'-bipiperidin-4-yl)cyclobutanecarboxamide] | 3 nM |
| Cc1cccc(C)c1C(=O)N1CCC(C)(N2CCC(N(Cc3ccccc3)C(=O)C3CC3)CC2)CC1 [N-benzyl-N-(1'-(2,6-dimethylbenzoyl)-4'-methyl-1,4'-bipiperidin-4-yl)cyclopropanecarboxamide] | 0.5 nM |
| Cc1cccc(C)c1C(=O)N1CCC(N2CC(N(Cc3ccccc3)C(=O)C3CC3)C2)CC1 [N-benzyl-N-(1-(1-(2,6-dimethylbenzoyl)piperidin-4-yl)azetidin-3-yl)cyclopropanecarboxamide] | 5800 nM |
| Cc1cccc(C)c1C(=O)N1[C@@H]2CC[C@H]1C[C@H](N1CC[C@@H](N(Cc3ccccc3)C(=O)C3CC3)C1)C2 [exo-N-benzyl-N-((R)-1-(8-(2,6-dimethylbenzoyl)-8-azabicyclo[3.2.1]octan-3-yl)pyrrolidin-3-yl)cyclopropanecarboxamide] | 1 nM |
